Values joined by “and” are separate entries in the source; they are usually repeats but may differ in a detail not shown here. Identical values can stand only once. Like-named read-outs stand apart in the source and are kept apart here.
Legend:
[1] = target: T1, Rba. sphaeroides reaction centre (QB site) (Cereibacter sphaeroides, UniProt P0C0Y8); experiment: Kinetics of charge recombination in photo-oxidised reaction centres in solution (absorbance at 865 nm); format: biochemical, Rhodobacter sphaeroides; conditions: for effect on recombination rate (in words): 500 µM agent; for τ1 / τ2 / A1 / A2: 500 µM inhibitor; for τ1 / τ2: 13.2 µM reaction centres, 30 µM UQ0, ± standard error; for A1: amplitude of τ1 component; for A2: amplitude of τ2 component
T1 construct: made in house; host or cells: Rba. sphaeroides strain DD13 carrying plasmid pvLMt (written pvLMtX)
Method: Analysis of the effects of herbicides or inhibitors on the kinetics of charge recombination was performed using a Cary60 spectrophotometer connected to an external 1 cm cuvette holder (Ocean Optics) via a fibre-optic coupler. A white light pulse of 50 ms duration was applied to the sample cuvette at 90° to the pulsed measuring beam by an HL-2000-FHSA white light source with a fast shutter (Ocean Optics) delivering approximately 25 W m^−2 illumination at the cuvette surface. The actinic pulse was triggered by a TGP110 pulse generator (Thurlby Thandur Instruments). […] Test samples were loaded into to a 3×3 mm fluorescence cuvette (Hellma) aligned to the measuring and excitation pulses and absorbance at 865 nm was measured for 20 s after delivery of the light pulse, with a further period of at least 60 s to allow full dark adaptation of the reaction centres before re-excitation. A set of eight kinetic traces were recorded for each sample, averaged, and fitted using a single or double exponential function in Origin 8 (OriginLab).
To ensure this pattern of results was not specific to the conditions within the photoelectrochemical cell, the ability of these inhibitors to replace ubiquinone at the QB site was also tested by measuring the rate of recombination from QA and QB to the primary donor bacteriochlorophyll (P) after excitation with a pulse of white light (see Section 2). As outlined in Section 1, recombination of P^+QA^− or P^+QB^− occurs with lifetimes of ~100 ms and ~1 s, respectively. As the QB quinone is partially lost during purification of reaction centres, assays were conducted in the presence of 30 µM UQ0 to reconstitute QB, the reaction centre concentration being 13.2 µM.

[2] = target: QB site in the Rba. sphaeroides reaction centre; set-up: method as in Stein et al., 1984; conditions: 1 μM reaction centres, 10 mM Tris (pH 8.0), 100 mM NaCl, 0.06% TX-100, 20 μM UQ10; ref Stein et al., 1984; cited from earlier work
[3] = tested on: Blc. viridis reaction centres (tyrosine to phenylalanine mutant near QB pocket); set-up: method as in Sinning et al., 1989; conditions: ref Sinning et al., 1989, cited from earlier work
[4] = tested on: Blc. viridis reaction centre; set-up: method as in Sinning et al., 1989; conditions: ref Sinning et al., 1989; cited from earlier work
[5] = target: T2, Rba. sphaeroides reaction centre quinone reductase (QB) site (Cereibacter sphaeroides, UniProt P0C0Y8); experiment: Determination of the Km(apparent) for UQ0 from photocurrent density; format: biochemical, Rhodobacter sphaeroides; conditions: detergent-free buffer, Michaelis–Menten fit
T2 construct: made in house; host or cells: Rba. sphaeroides strain DD13 carrying plasmid pvLMt (written pvLMtX)
Method: Photovoltaic cells were assembled as described above but with the omission of UQ0. Photocurrents of 30 s duration were measured in the absence of UQ0 and after the addition of increasing amounts of UQ0. Maximal currents from three titrations were averaged, plotted as a function of UQ0 concentration then fitted with the Michaelis–Menten equation using Origin 8.0 (OriginLab).
To optimise the concentration of the substrate for the reaction centre quinone reductase (QB) site in the cell the Km^(apparent) for UQ0 was determined by measuring the maximum photocurrent density during a 30 s period of illumination as a function of increasing concentrations of UQ0. A concentration-dependent increase in the photocurrent amplitude was obtained, which was fitted with the Michaelis–Menten equation (Supplementary Fig. 3). […] This Km^(apparent) for UQ0 is, to our knowledge, the strongest reported to date. […] As the present assay was conducted in detergent-free buffer, the stronger Km^(apparent) obtained is consistent with this trend.

[6] = target: reaction centre QB site; set-up: method as in earlier work; conditions: ref McComb et al., 1990, Paddock et al., 1988, Gerencsér and Maróti, 2008, cited from earlier work
[7] = target: T1, Rba. sphaeroides reaction centre (QB site); experiment: Inhibition of photocurrent generation in photoelectrochemical cell with reaction centres adhered to a gold electrode; format: biochemical, Rhodobacter sphaeroides; conditions: for LOD (IC5): calculated from IC50 and Hill coefficient, 5% change in current; for inhibition of the QB site / photocurrent (in words): present study, detergent-free buffer
Method: To adhere reaction centres the cleaned gold electrode was immersed in 25 µL of a 1 mg mL^−1 (approximately 10 µM) solution of purified reaction centres in 20 mM Tris (pH 8.0)/0.1% LDAO for 1 h at 4 °C in dark. Unbound reaction centres were removed by dipping the electrode in ice-cold 20 mM Tris (pH 8.0) three times. The coated gold electrode was assembled into a glass-bottomed cell along with a Pt counter electrode (Radiometer Analytical), and an Ag/AgCl reference electrode (Radiometer Analytical). The cell was filled with 1 ml of 20 mM Tris (pH 8.0) containing 20 µM horse heart cyt c and 30 µM UQ0 (both from Sigma-Aldrich) and placed above a shutter-controlled 1.5 W 880 nm LED light source (Roithner LaserTechnik), resulting in an illumination intensity of 46 mW cm^−2 at the working electrode. A potential of −100 mV vs SCE was applied and photocurrents measured by chronoamperometry using the Autolab PGSTAT128N potentiostat (Metrohm) controlled by the PC running Autolab Nova 1.4 software (Metrohm).
The cell was incubated for 1 min before measurement of a 30 s photocurrent. All herbicides and inhibitors were purchased from Sigma-Aldrich, and their structures are shown in Supplementary Fig. 2.
For titrations, the photocurrent from a freshly prepared cell was measured for 30 s before and after the addition of increasing concentrations of atrazine, terbutryn or stigmatellin prepared in 20 mM Tris (pH 8.0)/20 µM cyt c/30 µM UQ0. After each addition the cell was equilibrated for 60 s before measuring the photocurrent, which was sufficient to allow stabilisation of the applied current required to maintain a potential of −100 mV vs SCE. Maximal photocurrents were plotted as a function of inhibitor concentration and fitted with a logistic function to determine the IC50 and IC5 (see text). These IC50 values were used to estimate Ki using the Cheng–Prusoff equation (see text).
To quantify the sensitivity of photocurrent generation to atrazine, terbutryn and stigmatellin the maximal photocurrent after a standard period of 30 s was recorded as a function of herbicide or inhibitor concentration. The titration data, expressed as the percentage of the maximum current in the absence of the herbicide/inhibitor, were fitted to a logistic function (Eq. (1)) to determine the IC50.(1) Y=Min+Max−Min/1+([Inhibitor]/IC50)^−HillCoefficient where Max and Min are maximal and minimal photocurrents, respectively. […] Based on this, the LOD can be represented by an IC5 value that can be calculated from the parameters of the IC50 fit (Eq. (2)).
To compare the sensitivity of our photochemical cell device to previous studies employing Rba. sphaeroides reaction centres, the IC50 values were converted to values for the binding affinity of the inhibitor (Ki) using the Cheng–Prusoff equation (Eq. (3)) ([Cheng and Prusoff, 1973])(3) Ki=IC50/1+([S]/Km) where [S] is the substrate concentration and Km is the measured Michaelis constant for UQ0 (see above).

[8] = tested on: PSII; conditions: cited from earlier work
[9] = tested on: spinach thylakoids; set-up: method as in Touloupakis et al., 2005; conditions: albumin glutaraldehyde matrix; ref Touloupakis et al., 2005; cited from earlier work
[10] = PSII complexes in glutaraldehyde–BSA matrix on graphite electrode, ref Koblížek et al., 2002
[11] = PSII reaction centres or BBY particles on screen printed gold electrodes, ref Bhalla and Zazubovich, 2011
[12] = mutant vs normal reaction centre

SMILES | effect on recombination rate (in words) [1] | τ1 [1] [s] | τ2 [1] [s] | A1 [1] [%] | A2 [1] [%] | Kd [2] [nM] | IC50 [7] [nM] | Ki [7] [nM] | photocurrent remaining ([7]; 100 µM agent) | LOD (IC5) [7] [nM] | inhibition of the QB site / photocurrent (in words) [7] | photocurrent remaining ([7]; 500 µM agent) | further results
CN(C)C(=O)Nc1ccc(Cl)c(Cl)c1 [DCMU, 3-(3,4-dichlorophenyl)-1,1-dimethylurea] | unaffected | 0.179 ± 0.012 | 1.18 ± 0.04 | 51.7 ± 3.7 | 48.3 ± 3.7 | > 800000 |  |  |  |  |  |  | increase in affinity in mutant ([3]; single tyrosine to phenylalanine change): at least four orders of magnitude; inhibitor grouping (in words) [4]: very weak inhibitors
COC1=C(OC)C(=O)C(C)=CC1=O [UQ0, ubiquinone-0] |  |  |  |  |  |  |  |  |  |  |  |  | Km [5]: 42 ± 2 µM; Kd ([6]; 0.0025% LDAO): 175000 nM and 90000 nM; Kd ([6]; 0.06% LDAO): 480000 nM; Kd ([6]; 0.1% LDAO): 600000 nM
CCNc1nc(Cl)nc(NC(C)C)n1 [atrazine, N^2-ethyl-6-chloro-N^4-isopropyl-1,3,5-triazine-2,4-diamine] | accelerated significantly | 0.212 ± 0.004 |  | 100 |  | 120000 | 2100 ± 100 | 1200 | less than 10% | ~50 | strong inhibition |  | LOD (IC5) ([7]; listed as Atrazine): 49 nM; IC50 [8, 10]: 90 nM; LOD [8, 10]: 2 nM; IC50 ([8]; PSII on screen printed Pt electrode in glutaraldehyde–BSA–glycerol matrix, ref Masojídek et al., 2011): 890 nM; IC50 [8, 11]: 49 nM; LOD [8, 11]: 1.15 nM; IC50 [9]: 100 nM; LOD [9]: 12.7 nM
CC(C)N1C(=O)c2ccccc2NS1(=O)=O [bentazon] | unaffected | 0.129 ± 0.015 | 1.09 ± 0.03 | 39.0 ± 5.8 | 61.0 ± 3.0 |  |  |  |  |  | weak inhibition | greater than 80% | 
N#Cc1cc(Br)c(O)c(Br)c1 [bromoxynil] | unaffected | 0.038 ± 0.009 | 1.14 ± 0.04 | 36.1 ± 12.4 | 63.9 ± 2.2 | 30000 |  |  |  |  | ineffective | greater than 80% | 
COc1cc(CNC(=O)CCCC/C=C/C(C)C)ccc1O [capsaicin] | unaffected | 0.152 ± 0.011 | 1.19 ± 0.03 | 41.0 ± 3.8 | 59.0 ± 2.2 |  |  |  |  |  |  | greater than 80% | 
N#Cc1cc(I)c(O)c(I)c1 [ioxynil] |  |  |  |  |  |  |  |  |  |  |  |  | increase in sensitivity to inhibitor in mutant [3, 12]: 100 fold; inhibitor grouping (in words) [4]: very weak inhibitors
C/C=C(C)/C=C/C=C/[C@H](OC)[C@@H](C)[C@@H](OC)[C@@H](C)CCc1oc2c(O)c(OC)cc(OC)c2c(=O)c1C [stigmatellin] | accelerated significantly | 0.095 ± 0.003 |  | 100 |  |  | 280 ± 60 | 165 | less than 10% | 8.3 | strong inhibition |  | LOD (IC5) ([7]; listed as Stigmatellin): 10 nM
CCNc1nc(NC(C)(C)C)nc(SC)n1 [terbutryn] | accelerated significantly | 0.152 ± 0.004 |  | 100 |  | 3000 | 208 ± 10 | 123 | less than 10% | 8.3 | strong inhibition |  | decrease in sensitivity to inhibitor in mutant [3, 12]: 660 fold

Reference: paper PMC4009402, “Evaluation of a biohybrid photoelectrochemical cell employing the purple bacterial reaction centre as a biosensor for herbicides” (Biosensors & Bioelectronics, 2014)
